We go through 19 compounds from US10870618B2, “Histone deacetylase inhibitors and uses thereof” (MUSC FOUNDATION FOR RESEARCH DEVELOPMENT, priority 2016, dated 2020).

For experiment [1], the target named is HDAC3 (Homo sapiens (Human), UniProt O15379). In words: Recombinant HDAC inhibition assay (HDAC3). It is filed as biochemical.
Method: Recombinant HDACs 1, 2, and 3 (BPS Biosciences) were diluted to a concentration of 1 nM in HDAC buffer. 10 uL of this solution was added in 96-well format to black U-bottom plates. 10 uL of serially diluted inhibitor was added and a 2 hour pre incubation occurred at room temperature. 50 μM (final) of Acetylated Lysine-Aminomethyl coumarin-BOC in HDAC buffer solution was added and a second 2 hour incubation occurred at room temperature. 5 mg/mL trypsin, 1 μM trichostatin A solution in HDAC buffer was added to quench the reaction. […] Data were normalized to control wells containing no inhibitor. IC50's were determined using GraphPad Prism's built in “log(inhibitor) vs. normalized response—Variable slope” function.
The subject of experiment [2] is HEK293 Lysate. In words: Hek293 lysate inhibition assay. In kind it is biochemical.
Method: Hek293 cells were purchased from ATCC and cultured in Dulbecco's modified eagle's medium with glutamax and 10% (v/v) FBS. Cells were plated in 75 cm^2 flasks and incubated at 37° C. and 5% CO2 until −80% confluent. Cells were harvested, washed, and pelleted, lysed before protein concentration was determined using a Tecan M200 spectrophotometer in a BCA assay, and finally stored at −80° C. Upon need, lysate was thawed and diluted to 1 mg/mL of protein concentration with HDAC Buffer. […] The solution was buffered to a pH of 8 and addition of 1 mg/mL BSA was added. 10 μL of this diluted lysate solution was added in 96-well format black U-bottom plates. Serially diluted inhibitor solution was added and a 2 hour pre incubation occurred at 37° C. 50 μM (final) of Acetylated Lysine-Aminomethyl coumarin-BOC in HDAC buffer solution was added and a second 2 hour incubation occurred at 37° C. 5 mg/mL trypsin, 1 μM trichostatin A solution in HDAC buffer was added to quench the reaction. […] Data were normalized to control wells containing no inhibitor. IC50's were determined using GraphPad Prism's built in “log(inhibitor) vs. normalized response—Variable slope” function.

Some results are limits rather than exact numbers.

Chain of HDAC3 (O15379 whole entry): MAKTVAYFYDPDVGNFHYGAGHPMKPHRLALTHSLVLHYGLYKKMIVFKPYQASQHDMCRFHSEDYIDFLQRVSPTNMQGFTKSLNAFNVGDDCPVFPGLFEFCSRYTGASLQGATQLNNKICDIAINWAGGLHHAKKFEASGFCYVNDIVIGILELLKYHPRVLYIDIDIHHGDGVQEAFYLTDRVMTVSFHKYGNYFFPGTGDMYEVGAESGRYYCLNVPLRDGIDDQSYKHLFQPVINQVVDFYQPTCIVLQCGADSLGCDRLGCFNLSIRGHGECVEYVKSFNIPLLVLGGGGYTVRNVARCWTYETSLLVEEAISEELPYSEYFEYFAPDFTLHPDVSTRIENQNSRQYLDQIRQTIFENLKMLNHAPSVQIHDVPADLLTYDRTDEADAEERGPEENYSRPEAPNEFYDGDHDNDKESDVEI
Chain of HDAC3 (Q9Y618 395-489 partner): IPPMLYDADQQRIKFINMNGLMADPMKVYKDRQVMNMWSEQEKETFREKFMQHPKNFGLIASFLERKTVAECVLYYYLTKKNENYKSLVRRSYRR

On to `CCCCNNC(=O)c1ccc(OC)cc1` [Compound 1a, N′-butyl-4-methoxybenzohydrazide], for which the results for the IC50 in experiment [1] and in experiment [2] were 157 ± 28.6 nM and 727 ± 10.8 nM, respectively.

In the case of `CCCCNNC(=O)c1cc2ccccc2o1` [Compound 1b, N′-butylbenzofuran-2-carbohydrazide], the IC50 (as a rule, the midpoint of a concentration-inhibition curve) in experiment [1] was determined as 1360 ± 197 nM; in experiment [2] it was 1690 ± 38 nM.

On to `CCCCNNC(=O)c1ccc(Oc2ccccc2)cc1` [Compound 1c, N′-butyl-4-phenoxybenzohydrazide], for which the IC50 in experiment [1] was 312 ± 42.8 nM; in experiment [2] it was 1690 ± 298 nM.

For `CCCCNNC(=O)c1cccnc1` [Compound 1d, N′-butylnicotinohydrazide], the IC50 was determined as 1550 ± 430 nM in experiment [1] and 4680 ± 909 nM in experiment [2].

In the case of `CCCCNNC(=O)c1cccs1` [Compound 1f, N′-butylthiophene-2-carbohydrazide], the IC50 was 904 ± 154 nM in experiment [1] and 3460 ± 669 nM in experiment [2].

As for `CCCCNNC(=O)c1ccco1` [Compound 1g, N′-butylfuran-2-carbohydrazide], the results for the IC50 in experiment [1] and in experiment [2] were 5000 ± 372 nM and more than 10000 nM, respectively.

In the case of `CCCCNNC(=O)CCc1ccccc1` [Compound 1h, N′-butyl-3-phenylpropanehydrazide], the values for the IC50 in experiment [1] and in experiment [2] were 1890 ± 227 nM and more than 10000 nM, respectively.

Consider `CCCCNNC(=O)/C=C/c1ccccc1` [Compound 1i, N′-butylcinnamohydrazide], for which the values for the IC50 in experiment [1] and in experiment [2] were 294 ± 32.6 nM and 1440 ± 86.1 nM, respectively.

On to `CCCCNNC(=O)c1cccc2ccccc12` [Compound 1j, N′-butyl-1-naphthohydrazide], for which the IC50 in experiment [1] and in experiment [2] was more than 10000 nM throughout.

`CC(C)NNC(=O)c1ccc(CNC(=O)c2ccccc2)cc1` [Compound 2b, N-(4-(2-isopropylhydrazine-1-carbonyl)benzyl)benzamide]: the IC50 in experiment [1] and in experiment [2] was more than 10000 nM throughout.

In the case of `CC/C=N/NC(=O)c1ccc(CNC(=O)c2ccccc2)cc1` [Compound 2c, (E)-N-(4-(2-propylidenehydrazine-1-carbonyl)benzyl)benzamide], the IC50 in experiment [1] and in experiment [2] was more than 10000 nM each time.

For the compound `O=C(NCc1ccc(C(=O)NNCCC(F)(F)F)cc1)c1ccccc1` [Compound 2f, N-(4-(2-(3,3,3-trifluoropropyl)hydrazine-1-carbonyl)benzyl)benzamide], the IC50 in experiment [1] worked out at 69.1 ± 0.52 nM; in experiment [2], 1230 ± 136 nM.

For the compound `O=C(NCc1ccc(C(=O)NNCC2CC2)cc1)c1ccccc1` [Compound 2g, N-(4-(2-(cyclopropylmethyl)hydrazine-1-carbonyl)benzyl)benzamide], the IC50 in experiment [1] turned out to be 39.93 ± 0.25 nM; in experiment [2] it was 1620 ± 196 nM.

Take `CCCCCCCNNC(=O)c1ccc(CNC(=O)c2ccccc2)cc1` [Compound 2h, N-(4-(2-heptylhydrazine-1-carbonyl)benzyl)benzamide]: the IC50 worked out at 569 ± 84.9 nM in experiment [1] and 2160 ± 896 nM in experiment [2].

Regarding `CCCCCCCCNNC(=O)c1ccc(CNC(=O)c2ccccc2)cc1` [Compound 2i, N-(4-(2-octylhydrazine-1-carbonyl)benzyl)benzamide], the values for the IC50 in experiment [1] and in experiment [2] were 1090 ± 334 nM and more than 10000 nM, respectively.

Take `CCCCCCNNC(=O)c1ccc(CNC(=O)c2ccccc2)cc1` [Compound 2j, N-(4-(2-hexylhydrazine-1-carbonyl)benzyl)benzamide]: the IC50 in experiment [1] turned out to be 184 ± 74.5 nM; in experiment [2], 550 ± 134 nM.

As for `CCCCCCCCCCNNC(=O)c1ccc(CNC(=O)c2ccccc2)cc1` [Compound 2k, N-(4-(2-decylhydrazine-1-carbonyl)benzyl)benzamide], the IC50 in experiment [1] and in experiment [2] was more than 10000 nM in each case.

`CCNNC(=O)c1ccc(CNC(=O)c2ccccc2)cc1` [Compound 2l, N-(4-(2-ethylhydrazine-1-carbonyl)benzyl)benzamide]: the IC50 turned out to be 187.3 ± 0.6 nM in experiment [1] and 427 ± 110 nM in experiment [2].

In the case of `O=C(NCc1ccc(C(=O)NNCC2CCC2)cc1)c1ccccc1` [Compound 2m, N-(4-(2-(cyclobutylmethyl)hydrazine-1-carbonyl)benzyl)benzamide], the results for the IC50 in experiment [1] and in experiment [2] were 84.4 ± 7.22 nM and 1880 ± 212 nM, respectively.
